Legend:
[1] = system: 231MFP breast cancer cells; assay: Metabolomic profiling (SRM-based LC-MS/MS) in 231MFP cells; assay type: cell-based; settings: 5 h
Procedure: For polar metabolites, cell pellets were extracted in a mixture of acetonitrile/methanol/water (40:40:20), with inclusion of D3-15N-serine (10 nM) as an internal standard. Insoluble debris was separated via centrifugation at 13,000 rpm for 10 minutes. For nonpolar metabolites, metabolomes were extracted in 2:1 chloroform:methanol (3 ml) and PBS (1 ml) with inclusion of dodecylglycerol (10 nmol) and pentadecanoic acid (10 nmol) as internal standards. Organic and aqueous layers were separated by centrifugation at 1000×g for 5 minutes; the organic layer was collected, dried under a stream of nitrogen, and then dissolved in chloroform (120 μl). An aliquot of the nonpolar or polar extracts were then injected into an Agilent 6460 or 6430 QQQ-LC/MS/MS system. Separation of polar metabolites was achieved using normal-phase chromatography with a Luna NH2 column (5 mm) using a mobile phase (Buffer A: acetonitrile; Buffer B, 95:5 water/acetonitrile; with a modifier of 0.1% formic acid or 0.2% ammonium hydroxide) along with ammonium acetate (50 mM) for positive and negative ionization mode, respectively. The following gradient was used for each run: 0% B for 5 minutes (flow rate: 0.2 mL/min), 0% B to 100% B (linear) over 15 min (flow rate: 0.7 mL/min), then followed by an isocratic gradient of 100% B for 5 minutes (flow rate: 0.7 mL/min) and then 0% B for 5 minutes (flow rate of 0.7 mL/min). For nonpolar metabolites, metabolomes were separated using reverse-phase chromatography with a Luna C5 column (50 mm×4.6 mm with 5 μm diameter particles). Mobile phase A consisted of 95:5 ratio of water/methanol and mobile phase B consisted of 2-propanol, methanol, and water in a 60:35:5 ratio. Solvent modifiers of 0.1% formic acid, 5 mM ammonium formate, and 0.1% ammonium hydroxide were used to assist ion formation as well as to improve the LC resolution in both positive and negative ionization modes, respectively. The flow rate for each run started at 0.1 ml/min for 5 minutes to alleviate backpressure associated with injecting chloroform. The gradient started at 0% B and increased linearly to 100% B over the course of 45 min with a flow rate of 0.4 ml/min, followed by an isocratic gradient of 100% B for 17 minutes at 0.5 ml/min before equilibrating for 8 minutes at 0% B with a flow rate of 0.5 ml/min.
MS analysis was performed with an electrospray ionization (ESI) source on an Agilent 6430 or 6460 QQQ LC-MS/MS system. The capillary voltage was set to 3.0 kV, and the fragmentor voltage was set to 100 V. The drying gas temperature was 350° C., the drying gas flow rate was 10 L/min, and the nebulizer pressure was 35 psi. […] Metabolite levels are expressed as relative abundances as compared to controls.

[2] = system: cysteines profiled in 231MFP cells; assay: isoTOP-ABPP proteome-wide selectivity; assay type: binding; settings: 100 μM, out of >1000 cysteines profiled
Procedure: IsoTOP-ABPP studies were performed using the methods described in “Nature 534(7608), 570-574 (2016)” by Backus K. M., et al. and “Nature 468(7325), 790-795 (2010)” by Weerapana E., et al. Proteome samples diluted in PBS were treated with Withaferin A or vehicle for 30 minutes at 37° C. Then, IAyne (iodoacetamide-alkyne) labeling was performed for 1 hour at room temperature. CuAAC was used by sequential addition of tris(2-carboxyethyl)phosphine (1 mM), tris[(1-benzyl-1H-1,2,3-triazol-4-yl)methyl]amine (34 μM), copper (II) sulfate (1 mM), and biotin-linker-azide where the linker was functionalized with a TEV protease recognition sequence along with an isotopically light or heavy valine for treatment of control or treated proteome, respectively. After click reactions, proteomes were precipitated by centrifugation at 6500×g, washed in ice-cold methanol, combined in a 1:1 control/treated ratio, washed again, then denatured and re-solubilized by heating in 1.2% SDS/PBS to 80° C. for 5 minutes. […]
Peptides from all proteomic experiments were pressure-loaded onto an Agilent 600 series RP-HPLC system equipped with a capillary tubing (250 mm) packed with Aqua C18 reverse-phase resin (4 cm). […] Samples were analyzed using an Q Exactive Plus mass spectrometer using a 5-step Multidimensional Protein Identification Technology (MudPIT) program. […]

[3] = system: 231MFP breast cancer cells; assay: 231MFP serum-free cell survival (Hoechst staining); assay type: cell-based; settings: 48 h

Compound | ATP level ([1]; 100 μM) | LPA (lysophosphatidic acid) level ([1]; 100 μM) | acetyl CoA level ([1]; 100 μM) | lactic acid level ([1]; 100 μM) | phosphoenolpyruvate level ([1]; 100 μM) | phosphoglycerate level ([1]; 100 μM) | total sites showing >5 light to heavy ratio [2] | serum-free cell survival ([3]; 100 μM) | serum-free cell survival ([3]; 10 μM) | ATP level ([1]; 10 μM) | LPA (lysophosphatidic acid) level ([1]; 10 μM) | acetyl CoA level ([1]; 10 μM) | lactic acid level ([1]; 10 μM) | phosphoenolpyruvate level ([1]; 10 μM) | phosphoglycerate level ([1]; 10 μM)
O=C(CCl)Nc1ccc2c(c1)OCCO2 [DKM 2-90, 2-Chloro-N-(2,3-dihydrobenzo[β][1,4]dioxin-6-yl)acetamide] | Reductions | reductions | reduced | reduced | reduced | reduced | 5 |  |  |  |  |  |  |  | 
O=C(CCl)N(Cc1ccccc1)c1ccc2c(c1)OCCO2 [JNS 1-40, N-benzyl-2-chloro-N-(2,3-dihydrobenzo[b][1,4]dioxin-6-yl)acetamide] |  |  |  |  |  |  | only target | impaired |  |  |  |  |  |  | 
CC1=C(CO)C(=O)O[C@@H]([C@@H](C)[C@H]2CC[C@H]3[C@@H]4C[C@H]5O[C@]56[C@@H](O)C=CC(=O)[C@]6(C)[C@H]4CC[C@]23C)C1 [withaferin A, reference compound] |  |  |  |  |  |  |  |  | impairs | Reductions | reductions | reduced | reduced | reduced | reduced

— patent US20200054651A1, “COMPOSITIONS AND METHODS FOR MODULATING PPP2R1A” (The Regents of the University of California, priority 2017, published 2020)
